Reference: PubChem BioAssay AID2060496 (Molecular Pharmacology Branch, DTP, NCI, 2025)

Tested on: 276233-004-R-J1-PDC complex spheroid viability
Experiment: Anticancer human tumor 276233-004-R-J1-PDC patient-derived colon adenocarcinoma cell line growth inhibition [GQUAD]
Conditions: for IC50: curve of first compound; for viability, T/C: stronger effect = lower value; active = viability on the fitted dose curve at most 10% of control; inactive = the rest
How it was run: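 Viability of tumor cells grown as complex spheroids with endothelial and stromal cells, exposed to drug combinations. Top concentration at or near clinical Cmax (else 10 microM), diluted in half-log increments.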

[1] = second compound 0.0316 µM, first compound 0.0316 µM
[2] = second compound 0.0316 µM, first compound 0.1 µM
[3] = second compound 0.0316 µM, first compound 0.316 µM
[4] = second compound 0.0316 µM, first compound 1 µM
[5] = second compound 0.0316 µM, first compound 3.16 µM
[6] = second compound 0.0316 µM, first compound 10 µM
[7] = second compound 0.1 µM, first compound 0.0316 µM
[8] = second compound 0.1 µM, first compound 0.1 µM
[9] = second compound 0.1 µM, first compound 0.316 µM
[10] = second compound 0.1 µM, first compound 1 µM
[11] = second compound 0.1 µM, first compound 3.16 µM
[12] = second compound 0.1 µM, first compound 10 µM
[13] = second compound 0.316 µM, first compound 0.0316 µM
[14] = second compound 0.316 µM, first compound 0.1 µM
[15] = second compound 0.316 µM, first compound 0.316 µM
[16] = second compound 0.316 µM, first compound 1 µM
[17] = second compound 0.316 µM, first compound 3.16 µM
[18] = second compound 0.316 µM, first compound 10 µM
[19] = second compound 1 µM, first compound 0.0316 µM
[20] = second compound 1 µM, first compound 0.1 µM
[21] = second compound 1 µM, first compound 0.316 µM
[22] = second compound 1 µM, first compound 1 µM
[23] = second compound 1 µM, first compound 3.16 µM
[24] = second compound 1 µM, first compound 10 µM
[25] = second compound 3.16 µM, first compound 0.0316 µM
[26] = second compound 3.16 µM, first compound 0.1 µM
[27] = second compound 3.16 µM, first compound 0.316 µM
[28] = second compound 3.16 µM, first compound 1 µM
[29] = second compound 3.16 µM, first compound 3.16 µM
[30] = second compound 3.16 µM, first compound 10 µM
[31] = second compound 10 µM, first compound 0.0316 µM
[32] = second compound 10 µM, first compound 0.1 µM
[33] = second compound 10 µM, first compound 0.316 µM
[34] = second compound 10 µM, first compound 1 µM
[35] = second compound 10 µM, first compound 3.16 µM
[36] = second compound 10 µM, first compound 10 µM
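Note: spheroids exposed to drugs for seven days.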
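Throughout, for viability, T/C: 100% = DMSO vehicle control viability.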

Nc1ccn(C2OC(CO)C(O)C2(F)F)c(=O)n1 (stereo unspecified) + Cc1[nH]c2ccc(F)cc2c1-c1nc2c3cccnc3c3ncccc3c2[nH]1
inactive: viability, T/C [1] 102% | viability, T/C [2] 74.9% | viability, T/C [3] 74.1% | viability, T/C [4] 71% | viability, T/C [5] 66.2% | viability, T/C [6] 78.4% | viability, T/C [7] 72.1% | viability, T/C [8] 88.4% | viability, T/C [9] 61.7% | viability, T/C [10] 76.3% | viability, T/C [11] 82.9% | viability, T/C [12] 67.8% | viability, T/C [13] 67% | viability, T/C [14] 74.8% | viability, T/C [15] 79.4% | viability, T/C [16] 73% | viability, T/C [17] 83.2% | viability, T/C [18] 63.6% | viability, T/C [19] 65% | viability, T/C [20] 58.5% | viability, T/C [21] 68.8% | viability, T/C [22] 76.7% | viability, T/C [23] 65.8% | viability, T/C [24] 64.8% | viability, T/C [25] 53.8% | viability, T/C [26] 42% | viability, T/C [27] 50.6% | viability, T/C [28] 50.1% | viability, T/C [29] 51.9% | viability, T/C [30] 59.3% | viability, T/C [31] 39.7% | viability, T/C [32] 43% | viability, T/C [33] 43.4% | viability, T/C [34] 40.2% | viability, T/C [35] 42.2% | viability, T/C [36] 40%
> 10 µM: IC50 (second compound 0.0316 µM) | IC50 (second compound 0.1 µM) | IC50 (second compound 0.316 µM) | IC50 (second compound 1 µM)
< 0.0316 µM: IC50 (second compound 3.16 µM) | IC50 (second compound 10 µM)

Cn1ncnc1[C@H]1c2n[nH]c(=O)c3cc(F)cc(c23)N[C@@H]1c1ccc(F)cc1 + Cc1[nH]c2ccc(F)cc2c1-c1nc2c3cccnc3c3ncccc3c2[nH]1
inactive: viability, T/C (second compound 0.0316 µM, first compound 0.000999 µM) 89% | viability, T/C (second compound 0.0316 µM, first compound 0.00316 µM) 99.2% | viability, T/C (second compound 0.0316 µM, first compound 0.00999 µM) 104% | viability, T/C [1] 94.1% | viability, T/C (second compound 0.0316 µM, first compound 0.0999 µM) 95.6% | viability, T/C [3] 90.7% | viability, T/C (second compound 0.1 µM, first compound 0.000999 µM) 91.2% | viability, T/C (second compound 0.1 µM, first compound 0.00316 µM) 97.8% | viability, T/C (second compound 0.1 µM, first compound 0.00999 µM) 99.9% | viability, T/C [7] 88.5% | viability, T/C (second compound 0.1 µM, first compound 0.0999 µM) 98% | viability, T/C [9] 94.8% | viability, T/C (second compound 0.316 µM, first compound 0.000999 µM) 94.7% | viability, T/C (second compound 0.316 µM, first compound 0.00316 µM) 79.9% | viability, T/C (second compound 0.316 µM, first compound 0.00999 µM) 86.6% | viability, T/C [13] 99.2% | viability, T/C (second compound 0.316 µM, first compound 0.0999 µM) 100% | viability, T/C [15] 93% | viability, T/C (second compound 1 µM, first compound 0.000999 µM) 63.5% | viability, T/C (second compound 1 µM, first compound 0.00316 µM) 66.6% | viability, T/C (second compound 1 µM, first compound 0.00999 µM) 78.7% | viability, T/C [19] 72.7% | viability, T/C (second compound 1 µM, first compound 0.0999 µM) 70.6% | viability, T/C [21] 84.7% | viability, T/C (second compound 3.16 µM, first compound 0.000999 µM) 56.3% | viability, T/C (second compound 3.16 µM, first compound 0.00316 µM) 66.5% | viability, T/C (second compound 3.16 µM, first compound 0.00999 µM) 49.2% | viability, T/C [25] 54.2% | viability, T/C (second compound 3.16 µM, first compound 0.0999 µM) 60.4% | viability, T/C [27] 57.4% | viability, T/C (second compound 10 µM, first compound 0.000999 µM) 50.3% | viability, T/C (second compound 10 µM, first compound 0.00316 µM) 47.3% | viability, T/C (second compound 10 µM, first compound 0.00999 µM) 50.5% | viability, T/C [31] 62.7% | viability, T/C (second compound 10 µM, first compound 0.0999 µM) 62% | viability, T/C [33] 44.2%
< 0.000999 µM: IC50 (second compound 10 µM)
> 0.316 µM: IC50 (second compound 0.0316 µM) | IC50 (second compound 0.1 µM) | IC50 (second compound 0.316 µM) | IC50 (second compound 1 µM) | IC50 (second compound 3.16 µM)

C=CC(=O)N1CCN(c2nc(=O)n(-c3c(C)ccnc3C(C)C)c3nc(-c4c(O)cccc4F)c(F)cc23)C(C)C1 (stereo unspecified) + CN(C)c1ccc(Nc2c3ccc(NC(=O)CCN4CCCC4)cc3nc3cc(NC(=O)CCN4CCCC4)ccc23)cc1
inactive: viability, T/C [1] 93.1% | viability, T/C [2] 90.4% | viability, T/C [3] 106% | viability, T/C [4] 97.6% | viability, T/C [5] 102% | viability, T/C [6] 87.6% | viability, T/C [7] 90% | viability, T/C [8] 75.8% | viability, T/C [9] 80.6% | viability, T/C [10] 73.9% | viability, T/C [11] 77% | viability, T/C [12] 75.2% | viability, T/C [13] 67.9% | viability, T/C [14] 82.1% | viability, T/C [15] 68.6% | viability, T/C [16] 58.5% | viability, T/C [17] 71% | viability, T/C [18] 68.9% | viability, T/C [19] 55.4% | viability, T/C [20] 47.8% | viability, T/C [21] 62.2% | viability, T/C [22] 56.6% | viability, T/C [23] 59.1% | viability, T/C [24] 63.6% | viability, T/C [25] 48.2% | viability, T/C [26] 52.1% | viability, T/C [27] 42.3% | viability, T/C [28] 44.6% | viability, T/C [29] 55.8% | viability, T/C [30] 45.3% | viability, T/C [31] 50.6% | viability, T/C [32] 55.1% | viability, T/C [33] 43.5% | viability, T/C [34] 53.5% | viability, T/C [35] 62.6% | viability, T/C [36] 47.8%
> 10 µM: IC50 (second compound 0.0316 µM) | IC50 (second compound 0.1 µM) | IC50 (second compound 0.316 µM) | IC50 (second compound 1 µM) | IC50 (second compound 10 µM)
< 0.0316 µM: IC50 (second compound 3.16 µM)
